Values of other authors in patent US20240398845A1, “USE OF SGLT-2 INHIBITORS FOR THE PREVENTION AND/OR TREATMENT OF CARDIAC DISEASES IN NON-HUMAN MAMMALS EXCLUDING FELINES, IN PARTICULAR CANINES” (BOEHRINGER INGELHEIM VETMEDICA GMBH, priority 2021, published 2024).

Legend:
[1] = tested on: non-diabetic heart failure; conditions: cited from earlier work
[2] = tested on: adults with heart failure and reduced ejection fraction; conditions: with and without diabetes; cited from earlier work
[3] = tested on: canine atrial fibrillation model; conditions: cited from earlier work
[4] = tested on: mitral regurgitation-induced myocardial dysfunction; conditions: cited from earlier work
Stage B2 dogs (MMVD) = conditions: cited from earlier work

## OC[C@H]1O[C@@H](c2ccc(Cl)c(Cc3ccc(O[C@H]4CCOC4)cc3)c2)[C@H](O)[C@@H](O)[C@@H]1O [empagliflozin, Empagliflozin]
[1]
  adverse left ventricular remodeling: ameliorates adverse left ventricular remodeling
[2]
  risk for the composite endpoint of cardiovascular death or hospitalization due to heart failure: reduced the risk

## Cc1ccc([C@@H]2O[C@H](CO)[C@@H](O)[C@H](O)[C@H]2O)cc1Cc1ccc(-c2ccc(F)cc2)s1 [canagliflozin, Canagliflozin]
[3]
  atrial remodeling: suppresses atrial remodeling

## CCOc1ccc(Cc2cc([C@@H]3O[C@H](CO)[C@@H](O)[C@H](O)[C@H]3O)ccc2Cl)cc1 [dapagliflozin, Dapagliflozin]
[4]
  cardiac hemodynamics and arrhythmogenesis: improves cardiac hemodynamics and mitigates arrhythmogenesis

## COc1ccc(-c2nc3ccc(C4=NNC(=O)CC4C)cc3[nH]2)cc1 (centres unmarked) [pimobendan]
Stage B2 dogs (MMVD)
  preclinical period: prolongation of the preclinical period
